Source: ChEMBL document CHEMBL1201862, “PubChem BioAssay data set” (2004)
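Cells were grown in 96-well plates and exposed to each compound for 48 hours at five concentrations; endpoints were interpolated linearly between bracketing concentrations, or set to the highest concentration if not reached. The concentration for 50% growth inhibition is given as GI50.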 The source made the active and inactive calls. No stated cut-off is given here; in the data, active = GI50 up to about 1.1 µM and inactive = higher.

Columns and labels:
Assay in all cases: NCI tumour cell line growth inhibition, 48 h
[1] = test system: Hs-578T
[2] = test system: EKVX
[3] = test system: OVCAR-8
[4] = test system: HCT-116
[5] = test system: RXF 393
[6] = test system: A498
[7] = test system: KM12
[8] = test system: CCRF-CEM
[9] = test system: HOP-62
[10] = test system: HL-60
[11] = test system: NCI-H226
[12] = test system: A549
[13] = test system: SF-268
[14] = test system: SK-MEL-2
[15] = test system: HCC 2998
[16] = test system: HT-29
[17] = test system: HOP-92
[18] = test system: RPMI-8226
[19] = test system: OVCAR-3
[20] = test system: NCI/ADR-RES

Measured: GI50

CN1C(=O)c2ccccc2OC12C=Cc1c(ccc3ccccc13)O2 (stereo not given)
inactive: [1] 3.85 µM | [2] 2.32 µM | [3] 3.74 µM | [4] 4.02 µM | [5] 3.85 µM | [6] 12.9 µM | [7] 2.21 µM | [8] 3.83 µM | [9] 4.29 µM | [10] 2.99 µM | [11] 5.94 µM | [12] 3.47 µM | [13] 3.78 µM | [14] 3.34 µM | [15] 3.95 µM | [16] 2.92 µM | [17] 1.85 µM | [18] 3.02 µM | [19] 4.03 µM | [20] 2.38 µM

O=C1OC(c2ccccc2)=N/C1=C\c1ccc([N+](=O)[O-])cc1
inactive: [1] 24.1 µM | [2] 36 µM | [3] 11.9 µM | [4] 98.6 µM | [5] 32.9 µM | [6] 35.4 µM | [7] 54.8 µM | [8] 13.8 µM | [9] 30.1 µM | [10] 24.4 µM | [11] 3.96 µM | [12] 82 µM | [13] 32.8 µM | [14] 27.4 µM | [15] > 100 µM | [16] > 100 µM | [17] 16.1 µM | [18] 30.2 µM | [19] 57.4 µM | [20] 8.97 µM
